In brackets after ≈: the same amount, converted by molar mass.
Legend:
[1] = biological target: Bromodomain-containing protein 4 (Homo sapiens, UniProt O60885, Y390A); assay: Displacement of Alexa Fluor 647-labeled ligand from BRD4 BD1 Y390A mutant (1 to 477 residue) (unknown origin) measured after 30 mins by TR-FRET assay
[2] = biological target: T1, Chromatin remodeling regulator CECR2 (Homo sapiens, UniProt Q9BXF3); assay: Displacement of Alexa Fluor 647-labeled GSK tracer from FLAG-6His-Tev-fused CECR2 (424 to 543 residue) (unknown origin) measured after 15 mins by TR-FRET assay
[3] = biological target: T2, ATPase family AAA domain-containing protein 2 (Homo sapiens, UniProt Q6PL18); assay: Displacement of Alexa Fluor 488-labeled ligand from FLAG-6His-Tev-fused ATAD2 (981 to 1121 residue) (unknown origin) measured after 30 mins by TR-FRET assay
T2 sequence (Q6PL18 whole entry): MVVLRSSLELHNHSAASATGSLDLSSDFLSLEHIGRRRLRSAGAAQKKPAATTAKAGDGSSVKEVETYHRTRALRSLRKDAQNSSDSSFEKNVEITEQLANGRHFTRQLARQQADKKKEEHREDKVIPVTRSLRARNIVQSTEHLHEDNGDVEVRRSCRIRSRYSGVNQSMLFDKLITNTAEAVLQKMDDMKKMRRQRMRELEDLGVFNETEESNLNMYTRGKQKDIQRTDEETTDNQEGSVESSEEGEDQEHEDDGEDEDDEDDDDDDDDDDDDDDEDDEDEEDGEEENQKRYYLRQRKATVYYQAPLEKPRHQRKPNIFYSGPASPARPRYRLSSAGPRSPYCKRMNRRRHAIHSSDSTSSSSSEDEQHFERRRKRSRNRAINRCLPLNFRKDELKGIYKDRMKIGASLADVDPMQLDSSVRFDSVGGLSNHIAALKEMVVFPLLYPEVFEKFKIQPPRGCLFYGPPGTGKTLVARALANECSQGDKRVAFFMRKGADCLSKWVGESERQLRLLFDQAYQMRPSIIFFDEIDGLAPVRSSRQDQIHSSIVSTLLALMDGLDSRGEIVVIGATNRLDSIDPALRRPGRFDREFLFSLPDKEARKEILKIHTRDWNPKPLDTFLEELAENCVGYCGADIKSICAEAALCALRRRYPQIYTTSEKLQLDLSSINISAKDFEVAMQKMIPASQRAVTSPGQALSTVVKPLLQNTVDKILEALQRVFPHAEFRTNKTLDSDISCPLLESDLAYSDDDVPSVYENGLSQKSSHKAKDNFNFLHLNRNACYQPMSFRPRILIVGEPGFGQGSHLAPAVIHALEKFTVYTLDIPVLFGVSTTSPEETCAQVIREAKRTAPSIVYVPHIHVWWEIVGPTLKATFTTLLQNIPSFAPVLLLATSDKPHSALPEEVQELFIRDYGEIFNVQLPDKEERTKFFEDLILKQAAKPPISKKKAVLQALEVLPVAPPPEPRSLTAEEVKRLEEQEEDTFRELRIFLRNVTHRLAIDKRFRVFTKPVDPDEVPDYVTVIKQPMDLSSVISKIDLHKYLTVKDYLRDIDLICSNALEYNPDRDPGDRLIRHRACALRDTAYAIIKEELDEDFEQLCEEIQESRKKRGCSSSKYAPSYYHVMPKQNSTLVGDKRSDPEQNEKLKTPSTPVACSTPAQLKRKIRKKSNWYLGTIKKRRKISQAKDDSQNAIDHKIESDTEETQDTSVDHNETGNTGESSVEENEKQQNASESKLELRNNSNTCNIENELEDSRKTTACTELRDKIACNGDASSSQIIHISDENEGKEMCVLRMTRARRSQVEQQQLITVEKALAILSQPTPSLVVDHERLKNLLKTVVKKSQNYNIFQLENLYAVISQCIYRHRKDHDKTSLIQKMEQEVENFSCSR

[4] = Permeability of the compound by artificial lipid membrane-based method; type: ADME; conditions: not told; read-out: permeability
[5] = biological target: Bromodomain-containing protein 4 (Homo sapiens, UniProt O60885); assay: Displacement of Alexa Fluor 647-labeled ligand from BRD4 BD2 (unknown origin) measured after 30 mins by TR-FRET assay
[6] = biological target: T1, Chromatin remodeling regulator CECR2; assay: Binding affinity to human partial length CECR2 (P423 to D543 residues) expressed in bacterial expression system by BROMOscan assay
[7] = biological target: Histone acetyltransferase KAT2A (Homo sapiens, UniProt Q92830); assay: Binding affinity to human partial length GCN5L2 (E726 to K837 residues) expressed in bacterial expression system by BROMOscan assay
[8] = biological target: T1, Chromatin remodeling regulator CECR2; assay: Inhibition of BSP-BODIPY binding to Nanoluc-tagged CECR2 (unknown origin) expressed in HEK293 cells measured after 4 to 6 hrs by NanoBRET assay; type: cell-based
[9] = Lipophilicity, log D of the compound at pH 7.4 by chromatographic method; type: physicochemical; conditions: buffer
[10] = Solubility of the compound by CAD method; type: physicochemical
[11] = species on record: Homo sapiens; assay: Selectivity ratio of IC50 for displacement of Alexa Fluor 488-labeled ligand from FLAG-6His-Tev-fused ATAD2 (981 to 1121 residue) (unknown origin) to IC50 for displacement of Alexa Fluor 647-labeled GSK tracer from FLAG-6His-Tev-fused CECR2 (424 to 543 residue) (unknown origin)
[12] = biological target: T1, Chromatin remodeling regulator CECR2; assay: Binding affinity to CECR2 (unknown origin) by ITC analysis

T1 sequence (Q9BXF3 whole entry, the tested form may be a part): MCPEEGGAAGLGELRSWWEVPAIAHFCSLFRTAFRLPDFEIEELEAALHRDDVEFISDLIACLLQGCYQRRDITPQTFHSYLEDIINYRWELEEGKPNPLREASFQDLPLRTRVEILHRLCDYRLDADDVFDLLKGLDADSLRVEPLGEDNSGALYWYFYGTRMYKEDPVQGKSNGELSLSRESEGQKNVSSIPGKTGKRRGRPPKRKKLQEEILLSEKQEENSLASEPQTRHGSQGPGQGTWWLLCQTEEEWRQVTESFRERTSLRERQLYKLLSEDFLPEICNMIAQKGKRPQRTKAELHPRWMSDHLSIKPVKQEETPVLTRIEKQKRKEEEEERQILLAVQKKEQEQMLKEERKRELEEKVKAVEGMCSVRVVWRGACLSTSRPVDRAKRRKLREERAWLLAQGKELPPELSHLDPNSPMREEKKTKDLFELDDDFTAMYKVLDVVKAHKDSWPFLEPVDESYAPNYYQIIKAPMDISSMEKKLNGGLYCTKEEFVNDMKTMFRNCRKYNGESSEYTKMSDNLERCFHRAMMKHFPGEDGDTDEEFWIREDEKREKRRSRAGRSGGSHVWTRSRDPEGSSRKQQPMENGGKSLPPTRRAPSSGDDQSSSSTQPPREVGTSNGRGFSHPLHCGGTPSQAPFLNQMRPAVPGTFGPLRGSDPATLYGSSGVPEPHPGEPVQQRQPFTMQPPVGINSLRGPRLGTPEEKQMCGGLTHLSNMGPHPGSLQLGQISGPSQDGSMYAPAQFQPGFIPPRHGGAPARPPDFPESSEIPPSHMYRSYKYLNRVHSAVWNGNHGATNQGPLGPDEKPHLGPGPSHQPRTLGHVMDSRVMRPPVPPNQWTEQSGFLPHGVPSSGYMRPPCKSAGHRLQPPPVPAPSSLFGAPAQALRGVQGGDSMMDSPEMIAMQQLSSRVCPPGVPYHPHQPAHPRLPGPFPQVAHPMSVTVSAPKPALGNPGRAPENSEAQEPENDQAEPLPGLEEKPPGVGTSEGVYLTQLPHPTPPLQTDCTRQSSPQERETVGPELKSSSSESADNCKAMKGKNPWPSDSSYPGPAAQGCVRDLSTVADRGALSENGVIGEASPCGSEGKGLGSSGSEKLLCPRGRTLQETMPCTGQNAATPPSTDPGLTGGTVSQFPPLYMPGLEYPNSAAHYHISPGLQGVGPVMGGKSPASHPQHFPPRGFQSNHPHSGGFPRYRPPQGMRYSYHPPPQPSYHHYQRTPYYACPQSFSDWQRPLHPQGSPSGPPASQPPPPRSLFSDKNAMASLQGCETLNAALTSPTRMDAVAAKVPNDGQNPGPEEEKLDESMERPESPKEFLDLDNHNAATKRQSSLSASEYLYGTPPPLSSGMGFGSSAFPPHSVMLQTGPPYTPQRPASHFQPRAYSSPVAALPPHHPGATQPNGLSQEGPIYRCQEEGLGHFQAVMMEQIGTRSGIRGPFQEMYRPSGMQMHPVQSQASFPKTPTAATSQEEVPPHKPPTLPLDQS
Chain of Histone acetyltransferase KAT2A (Q92830 whole entry, the tested form may be a part): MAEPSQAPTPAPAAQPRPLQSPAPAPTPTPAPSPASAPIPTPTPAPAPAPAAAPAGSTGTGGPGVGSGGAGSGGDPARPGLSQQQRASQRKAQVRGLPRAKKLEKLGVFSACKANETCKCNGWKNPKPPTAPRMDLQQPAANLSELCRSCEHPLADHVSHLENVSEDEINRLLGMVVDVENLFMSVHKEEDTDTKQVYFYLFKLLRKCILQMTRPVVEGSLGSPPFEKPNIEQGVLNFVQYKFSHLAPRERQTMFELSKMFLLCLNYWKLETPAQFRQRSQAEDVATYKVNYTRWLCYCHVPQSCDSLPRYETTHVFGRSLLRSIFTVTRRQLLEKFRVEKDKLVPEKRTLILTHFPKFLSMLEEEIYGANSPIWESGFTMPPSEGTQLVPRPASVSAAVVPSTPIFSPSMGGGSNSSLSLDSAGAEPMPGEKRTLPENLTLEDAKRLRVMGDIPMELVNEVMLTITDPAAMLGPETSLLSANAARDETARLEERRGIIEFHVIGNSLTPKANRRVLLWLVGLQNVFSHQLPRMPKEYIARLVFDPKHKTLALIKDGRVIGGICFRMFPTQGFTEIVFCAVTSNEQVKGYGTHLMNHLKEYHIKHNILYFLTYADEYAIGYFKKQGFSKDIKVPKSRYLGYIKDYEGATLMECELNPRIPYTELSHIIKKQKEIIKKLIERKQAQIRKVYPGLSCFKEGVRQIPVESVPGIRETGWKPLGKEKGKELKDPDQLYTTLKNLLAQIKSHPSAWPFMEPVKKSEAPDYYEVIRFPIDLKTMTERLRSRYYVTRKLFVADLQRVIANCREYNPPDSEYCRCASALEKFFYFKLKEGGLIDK

Row | SMILES | IC50 [1] | IC50 [2] | IC50 [3] | Papp [4] | IC50 [5] | Kd [6] | Kd [7] | IC50 [8] | chromatographic logD [9] | solubility [10] | Ratio IC50 [11] | Kd [12]
1 | CN1CCc2c(nnn2CC(=O)Nc2ccc(Cl)c(S(=O)(=O)N3CC[C@H](C4CC4)C3)c2)C1 | 25100 nM | 20 nM | 3160 nM | 11.1 ×10⁻⁶ cm/s | 10000 nM | 7.94 nM | 501 nM | 50.1 nM |  |  |  | 
2 | C[C@H]1CCN(S(=O)(=O)c2cc(NC(=O)Cn3nnc4c3CCN(CC(F)(F)F)C4)ccc2Br)C1 | 31600 nM | 158 nM | 2510 nM |  |  |  |  |  | 5.3 | 49 µg/mL (≈ 86.7 µM) | 16 | 
3 | CN(C)CCCOc1ccc(-c2cc(NCCCn3cccn3)nc(S(C)(=O)=O)n2)cc1 |  |  |  |  |  |  |  |  |  |  |  | 10 nM
4 | CN1CCc2c(nnn2CC(=O)Nc2ccc(Br)c(S(=O)(=O)N3CC[C@H](C4CC4)C3)c2)C1 | 12600 nM |  | 2000 nM | 14 ×10⁻⁶ cm/s | 5010 nM | 10 nM | 158 nM | 39.8 nM |  |  |  | 
5 | O=C(CN1C(=O)CCC1=O)Nc1ccc(Cl)c(S(=O)(=O)N2CCCC2)c1 | > 50100 nM | 3980 nM | 1260 nM | 4.2 ×10⁻⁶ cm/s |  |  |  |  |  |  |  | 

— ChEMBL document CHEMBL4354881, “Optimization of Potent ATAD2 and CECR2 Bromodomain Inhibitors with an Atypical Binding Mode” (J Med Chem, 2020)
